Assay results from article PMC5218480 (PLoS ONE, 2017).

System: MV-4-11 cells
Assay: Gene expression microarray analysis (Affymetrix PrimeView) and GSEA
Format: cell-based, human
Set-up: RFU PODN (11730768_x_at) / Fold change /veh PODN (11730768_x_at) / RFU LINC00158 (11744669_a_at) / Fold change /veh LINC00158 (11744669_a_at) / RFU DUSP10 (11751237_a_at) / Fold change /veh DUSP10 (11751237_a_at) / RFU ID3 (11757404_x_at) / Fold change /veh ID3 (11757404_x_at) / RFU PLEKHG5 (11737974_s_at) / Fold change /veh PLEKHG5 (11737974_s_at) / RFU LRRC4B (11730491_at) / Fold change /veh LRRC4B (11730491_at) / RFU GIMAP4 (11747438_a_at) / Fold change /veh GIMAP4 (11747438_a_at) / RFU KRT8 (11758183_x_at) / Fold change /veh KRT8 (11758183_x_at) / RFU CNN1 (11734310_a_at) / Fold change /veh CNN1 (11734310_a_at) / RFU VPS37D (11726825_at) / Fold change /veh VPS37D (11726825_at) / RFU C10orf10 (11716522_x_at) / Fold change /veh C10orf10 (11716522_x_at) / RFU KIR2DL2 /// KIR2DL4 /// KIR2DL5A /// KIR2DL5B /// KIR2DS1 /// KIR2DS2 /// KIR2DS3 /// KIR2DS4 /// KIR3DL3 /// KIR3DL3 /// KIR3DS1 (11738374_at) / Fold change /veh KIR2DL2 /// KIR2DL4 /// KIR2DL5A /// KIR2DL5B /// KIR2DS1 /// KIR2DS2 /// KIR2DS3 /// KIR2DS4 /// KIR3DL3 /// KIR3DL3 /// KIR3DS1 (11738374_at) / RFU C1QL1 (11718748_at) / Fold change /veh C1QL1 (11718748_at) / RFU TMPRSS4 (11747572_a_at) / Fold change /veh TMPRSS4 (11747572_a_at) / RFU HAMP (11756126_x_at) / Fold change /veh HAMP (11756126_x_at) / RFU RNFT2 (11725882_a_at) / Fold change /veh RNFT2 (11725882_a_at) / RFU NR4A2 (11747474_a_at) / Fold change /veh NR4A2 (11747474_a_at) / RFU ABCC12 (11746883_a_at) / Fold change /veh ABCC12 (11746883_a_at) / RFU TMEM136 (11760407_x_at) / Fold change /veh TMEM136 (11760407_x_at) / RFU CLDN22 /// WWC2 (11732394_at) / Fold change /veh CLDN22 /// WWC2 (11732394_at) / RFU HLA-DPB1 (11760878_x_at) / Fold change /veh HLA-DPB1 (11760878_x_at) / RFU SPINT1 (11716480_a_at) / Fold change /veh SPINT1 (11716480_a_at) / RFU GAP43 (11754022_s_at) / Fold change /veh GAP43 (11754022_s_at) / RFU A4GNT (11735810_at) / Fold change /veh A4GNT (11735810_at) / RFU PRB3 (11715151_x_at) / Fold change /veh PRB3 (11715151_x_at) / RFU TUBB4B (11761932_at) / Fold change /veh TUBB4B (11761932_at) / RFU CAPN14 (11732068_a_at) / Fold change /veh CAPN14 (11732068_a_at) / RFU TMCC2 (11721928_a_at) / Fold change /veh TMCC2 (11721928_a_at) / RFU IRGQ (11745062_a_at) / Fold change /veh IRGQ (11745062_a_at) / RFU FAM174B (11720279_a_at) / Fold change /veh FAM174B (11720279_a_at) / RFU TMPRSS4 (11748680_a_at) / Fold change /veh TMPRSS4 (11748680_a_at) / RFU FAM212B (11763350_a_at) / Fold change /veh FAM212B (11763350_a_at) / RFU PLEKHG5 (11743358_a_at) / Fold change /veh PLEKHG5 (11743358_a_at) / RFU ZSCAN30 (11745921_a_at) / Fold change /veh ZSCAN30 (11745921_a_at) / RFU CMKLR1 (11741424_a_at) / Fold change /veh CMKLR1 (11741424_a_at) / RFU LOC101060620 /// MAPK8IP1 (11723275_at) / Fold change /veh LOC101060620 /// MAPK8IP1 (11723275_at) / RFU SPTSSB (11747773_x_at) / Fold change /veh SPTSSB (11747773_x_at) / RFU PRSS12 (11739890_at) / Fold change /veh PRSS12 (11739890_at) / RFU BIN1 (11741810_x_at) / Fold change /veh BIN1 (11741810_x_at) / RFU WNT11 (11732464_a_at) / Fold change /veh WNT11 (11732464_a_at) / RFU C10orf10 (11716521_a_at) / Fold change /veh C10orf10 (11716521_a_at) / RFU C5orf56 (11738089_at) / Fold change /veh C5orf56 (11738089_at) / RFU CYB561 (11721691_x_at) / Fold change /veh CYB561 (11721691_x_at) / RFU ANKRD19P (11752326_a_at) / Fold change /veh ANKRD19P (11752326_a_at) / RFU OR2T12 /// OR2T33 /// OR2T8 (11738714_s_at) / Fold change /veh OR2T12 /// OR2T33 /// OR2T8 (11738714_s_at) / RFU VCAN (11748164_a_at) / Fold change /veh VCAN (11748164_a_at) / RFU JSRP1 (11732532_at) / Fold change /veh JSRP1 (11732532_at) / RFU KRTAP10-11 (11738290_x_at) / Fold change /veh KRTAP10-11 (11738290_x_at) / RFU MYO3A (11730013_a_at) / Fold change /veh MYO3A (11730013_a_at) / RFU EBF3 (11725865_a_at) / Fold change /veh EBF3 (11725865_a_at) / RFU CAMK2N1 (11719241_x_at) / Fold change /veh CAMK2N1 (11719241_x_at) / RFU C5orf56 (11738088_a_at) / Fold change /veh C5orf56 (11738088_a_at) / RFU OLFML3 (11715873_a_at) / Fold change /veh OLFML3 (11715873_a_at) / RFU LOC100653217 /// NTM (11731650_a_at) / Fold change /veh LOC100653217 /// NTM (11731650_a_at) / RFU MAPK11 (11762145_a_at) / Fold change /veh MAPK11 (11762145_a_at) / RFU FIZ1 (11724087_x_at) / Fold change /veh FIZ1 (11724087_x_at) / RFU OASL (11726364_x_at) / Fold change /veh OASL (11726364_x_at) / RFU SOX15 (11748057_x_at) / Fold change /veh SOX15 (11748057_x_at) / RFU CD79A (11719716_a_at) / Fold change /veh CD79A (11719716_a_at) / RFU HIST1H1D (11736915_at) / Fold change /veh HIST1H1D (11736915_at) / RFU CASKIN2 (11723855_a_at) / Fold change /veh CASKIN2 (11723855_a_at) / RFU LOC730098 (11760151_x_at) / Fold change /veh LOC730098 (11760151_x_at) / RFU OR4N2 (11742367_at) / Fold change /veh OR4N2 (11742367_at) / RFU PRRT2 (11749266_a_at) / Fold change /veh PRRT2 (11749266_a_at) / RFU SNX32 (11753110_a_at) / Fold change /veh SNX32 (11753110_a_at) / RFU CDHR5 (11726645_a_at) / Fold change /veh CDHR5 (11726645_a_at) / RFU RCAN1 (11760418_a_at) / Fold change /veh RCAN1 (11760418_a_at) / RFU FAM167A (11723789_a_at) / Fold change /veh FAM167A (11723789_a_at) / RFU FAM26E (11764081_at) / Fold change /veh FAM26E (11764081_at) / RFU ISYNA1 (11749810_s_at) / Fold change /veh ISYNA1 (11749810_s_at) / RFU ACY1 (11761880_at) / Fold change /veh ACY1 (11761880_at) / RFU 11764098_at / Fold change /veh 11764098_at / RFU SAMD14 (11745864_x_at) / Fold change /veh SAMD14 (11745864_x_at) / RFU NPB (11741838_a_at) / Fold change /veh NPB (11741838_a_at) / RFU TMPRSS6 (11731388_a_at) / Fold change /veh TMPRSS6 (11731388_a_at) / RFU KRTAP10-2 (11738614_at) / Fold change /veh KRTAP10-2 (11738614_at) / RFU ARHGAP8 /// PRR5-ARHGAP8 (11727945_x_at) / Fold change /veh ARHGAP8 /// PRR5-ARHGAP8 (11727945_x_at) / RFU KRTAP5-7 /// NADSYN1 (11734609_at) / Fold change /veh KRTAP5-7 /// NADSYN1 (11734609_at) / RFU RASL12 (11751679_a_at) / Fold change /veh RASL12 (11751679_a_at) / RFU CDKN2B (11736163_a_at) / Fold change /veh CDKN2B (11736163_a_at) / RFU PRF1 (11729649_at) / Fold change /veh PRF1 (11729649_at) / RFU, ZNF638 /// ZNF638-IT1 / Fold change vs veh, ZNF638 /// ZNF638-IT1 / RFU, PANK3 / Fold change vs veh, PANK3 / RFU, SH3YL1 / Fold change vs veh, SH3YL1 / RFU, ZEB2 / Fold change vs veh, ZEB2 / RFU, NRIP1 / Fold change vs veh, NRIP1 / RFU, PTTG1IP / Fold change vs veh, PTTG1IP / RFU, CAPN2 / Fold change vs veh, CAPN2 / RFU, MED14 / Fold change vs veh, MED14 / RFU, SNORA58 / Fold change vs veh, SNORA58 / RFU, C1orf63 / Fold change vs veh, C1orf63 / RFU, LRRFIP1 / Fold change vs veh, LRRFIP1 / RFU, NDUFAF7 / Fold change vs veh, NDUFAF7 / RFU, SLC12A2 / Fold change vs veh, SLC12A2 / RFU, IBTK / Fold change vs veh, IBTK / RFU, ESF1 / Fold change vs veh, ESF1 / Fold change vs veh, TMEM50B / RFU, TAOK1 / Fold change vs veh, TAOK1 / RFU, ACBD3 / Fold change vs veh, ACBD3 / RFU, TMA16 / Fold change vs veh, TMA16 / RFU, RWDD3 / Fold change vs veh, RWDD3 / RFU, BCAT1 / Fold change vs veh, BCAT1 / RFU, EDEM3 / Fold change vs veh, EDEM3 / RFU, TMEM33 / Fold change vs veh, TMEM33 / RFU, WDR75 / Fold change vs veh, WDR75 / RFU, AHCTF1 / Fold change vs veh, AHCTF1 / RFU, TFRC / Fold change vs veh, TFRC / RFU, ZDHHC17 / Fold change vs veh, ZDHHC17 / RFU, NOM1 / Fold change vs veh, NOM1 / RFU, ARL8B / Fold change vs veh, ARL8B / RFU, ZBTB11 / Fold change vs veh, ZBTB11 / RFU, TAMM41 / Fold change vs veh, TAMM41 / RFU, KIAA1704 /// LOC100996395 / Fold change vs veh, KIAA1704 /// LOC100996395 / RFU, ING1 / Fold change vs veh, ING1 / RFU, TRMT61B / Fold change vs veh, TRMT61B / RFU, FUBP3 / Fold change vs veh, FUBP3 / RFU, TP53 / Fold change vs veh, TP53 / RFU, TNKS2 / Fold change vs veh, TNKS2 / RFU, ZFP14 / Fold change vs veh, ZFP14 / RFU, ACTR2 / Fold change vs veh, ACTR2 / RFU, PPP3R1 / Fold change vs veh, PPP3R1 / RFU, PIK3R1 / Fold change vs veh, PIK3R1 / RFU, HNRNPA1 / Fold change vs veh, HNRNPA1 / RFU, RNF170 / Fold change vs veh, RNF170 / RFU, ZNF28 / Fold change vs veh, ZNF28 / RFU, RNGTT / Fold change vs veh, RNGTT / RFU, OGT / Fold change vs veh, OGT / RFU, BRD1 / Fold change vs veh, BRD1 / RFU, MARS / Fold change vs veh, MARS / RFU, ZNF655 / Fold change vs veh, ZNF655 / RFU, FAHD1 / Fold change vs veh, FAHD1 / RFU, BDP1 / Fold change vs veh, BDP1 / RFU, LRRCC1 / Fold change vs veh, LRRCC1 / RFU, ARID1A / Fold change vs veh, ARID1A / RFU, ZNF146 / Fold change vs veh, ZNF146 / RFU, ZNF330 / Fold change vs veh, ZNF330 / RFU, GPN3 / Fold change vs veh, GPN3 / RFU, C9orf123 / Fold change vs veh, C9orf123 / RFU, N4BP2L2 / Fold change vs veh, N4BP2L2 / RFU, ARFIP1 / Fold change vs veh, ARFIP1 / RFU, FAM179B / Fold change vs veh, FAM179B / RFU, BCL10 / Fold change vs veh, BCL10 / RFU, UHRF1BP1L / Fold change vs veh, UHRF1BP1L / RFU, BET1 / Fold change vs veh, BET1 / RFU, CNOT2 / Fold change vs veh, CNOT2 / RFU, ZNF268 / Fold change vs veh, ZNF268 / Fold change vs veh, ZNF507 / RFU, DGCR2 / Fold change vs veh, DGCR2 / RFU, WDSUB1 / Fold change vs veh, WDSUB1 / Fold change vs veh, HSP90B1 /// MIR3652 / RFU, ADSS / Fold change vs veh, ADSS / RFU, GK / Fold change vs veh, GK / RFU, ZNF148 / Fold change vs veh, ZNF148 / RFU, TAF9 / Fold change vs veh, TAF9 / RFU, SLC1A5 / Fold change vs veh, SLC1A5 / RFU, SLMO2 / Fold change vs veh, SLMO2 / RFU, ABCC4 / Fold change vs veh, ABCC4 / RFU, LOC101060439 /// RAP1B / Fold change vs veh, LOC101060439 /// RAP1B / RFU, RFX7 / Fold change vs veh, RFX7 / RFU, GTPBP10 / Fold change vs veh, GTPBP10 / RFU, CNEP1R1 / Fold change vs veh, CNEP1R1 / RFU, BIVM-ERCC5 /// ERCC5 / Fold change vs veh, BIVM-ERCC5 /// ERCC5 / RFU, ILF3 / Fold change vs veh, ILF3 / RFU 11762660_at / Fold change /veh 11762660_at / RFU VCAN (11757783_s_at) / Fold change /veh VCAN (11757783_s_at) / RFU DDX43 (11728927_at) / Fold change /veh DDX43 (11728927_at) / RFU KRT8 (11758188_x_at) / Fold change /veh KRT8 (11758188_x_at) / RFU NKD1 (11759106_at) / Fold change /veh NKD1 (11759106_at) / RFU SRD5A1 (11742802_a_at) / Fold change /veh SRD5A1 (11742802_a_at) / RFU TPSAB1 /// TPSB2 (11721975_s_at) / Fold change /veh TPSAB1 /// TPSB2 (11721975_s_at) / RFU GSTM3 (11746129_a_at) / Fold change /veh GSTM3 (11746129_a_at) / RFU IL23R (11737362_x_at) / Fold change /veh IL23R (11737362_x_at) / RFU TMEM51 (11727254_a_at) / Fold change /veh TMEM51 (11727254_a_at) / RFU PIWIL2 (11732686_x_at) / Fold change /veh PIWIL2 (11732686_x_at) / RFU ORM1 (11744905_x_at) / Fold change /veh ORM1 (11744905_x_at) / RFU CCDC152 (11743942_at) / Fold change /veh CCDC152 (11743942_at) / RFU ECM1 (11717891_a_at) / Fold change /veh ECM1 (11717891_a_at) / RFU IL23R (11748794_a_at) / Fold change /veh IL23R (11748794_a_at) / RFU TNFAIP8L3 (11732012_x_at) / Fold change /veh TNFAIP8L3 (11732012_x_at) / RFU MBOAT4 (11741988_at) / Fold change /veh MBOAT4 (11741988_at) / RFU 11764193_at / Fold change /veh 11764193_at / RFU TMEM53 (11763286_at) / Fold change /veh TMEM53 (11763286_at) / RFU MAGEB2 (11727129_at) / Fold change /veh MAGEB2 (11727129_at) / RFU TMEM200A (11744735_a_at) / Fold change /veh TMEM200A (11744735_a_at) / RFU CCDC152 (11751479_a_at) / Fold change /veh CCDC152 (11751479_a_at) / RFU FAM211A (11726209_a_at) / Fold change /veh FAM211A (11726209_a_at) / RFU RGS16 (11746705_a_at) / Fold change /veh RGS16 (11746705_a_at) / RFU VCAN (11755009_s_at) / Fold change /veh VCAN (11755009_s_at) / RFU RHOB (11743442_s_at) / Fold change /veh RHOB (11743442_s_at) / RFU RGS16 (11720943_a_at) / Fold change /veh RGS16 (11720943_a_at) / RFU RGS16 (11720944_at) / Fold change /veh RGS16 (11720944_at) / RFU, VPS4B / Fold change vs veh, VPS4B / RFU, CREB1 / Fold change vs veh, CREB1 / RFU, DNAJC13 / Fold change vs veh, DNAJC13 / RFU, GNAQ / Fold change vs veh, GNAQ / RFU, CDK5R1 / Fold change vs veh, CDK5R1 / RFU, ZRANB3 / Fold change vs veh, ZRANB3 / RFU, CUL4A / Fold change vs veh, CUL4A / RFU, CCNY / Fold change vs veh, CCNY / RFU, UFL1 / Fold change vs veh, UFL1 / RFU, COG3 / Fold change vs veh, COG3 / RFU, DIAPH2 / Fold change vs veh, DIAPH2 / RFU, SKA2 / Fold change vs veh, SKA2 / RFU, AFF3 / Fold change vs veh, AFF3 / RFU, LMF1 / Fold change vs veh, LMF1 / RFU, IPO11 / Fold change vs veh, IPO11 / RFU, DFFB / Fold change vs veh, DFFB / RFU, FOXP1 / Fold change vs veh, FOXP1 / RFU, CARD8 / Fold change vs veh, CARD8 / RFU, STRN3 / Fold change vs veh, STRN3 / RFU, ADK / Fold change vs veh, ADK / RFU, RASSF2 / Fold change vs veh, RASSF2 / RFU, WIPF1 / Fold change vs veh, WIPF1 / RFU, LARP1B / Fold change vs veh, LARP1B / RFU, RASA1 / Fold change vs veh, RASA1 / RFU, RB1 / Fold change vs veh, RB1 / RFU, PPFIA1 / Fold change vs veh, PPFIA1 / RFU, MAT2A / Fold change vs veh, MAT2A / RFU, CCT5 / Fold change vs veh, CCT5 / RFU, WDR92 / Fold change vs veh, WDR92 / RFU, CUX1 / Fold change vs veh, CUX1 / RFU, TTC7A / Fold change vs veh, TTC7A / RFU, TMEM135 / Fold change vs veh, TMEM135 / RFU, DEPTOR / Fold change vs veh, DEPTOR / RFU, CPM / Fold change vs veh, CPM / RFU, DNAJB6 / Fold change vs veh, DNAJB6 / RFU, CACNA2D3 / Fold change vs veh, CACNA2D3 / RFU, DTX4 / Fold change vs veh, DTX4 / RFU, TFCP2 / Fold change vs veh, TFCP2 / RFU, GMCL1 /// GMCL1P1 / Fold change vs veh, GMCL1 /// GMCL1P1 / RFU, AEBP2 / Fold change vs veh, AEBP2 / RFU, SNHG1 /// SNORD22 /// SNORD25 /// SNORD26 /// SNORD27 /// SNORD28 /// SNORD29 /// SNORD31 / Fold change vs veh, SNHG1 /// SNORD22 /// SNORD25 /// SNORD26 /// SNORD27 /// SNORD28 /// SNORD29 /// SNORD31 / Fold change (Aza/veh), C12orf56 (ProbeSet 11735607_a_at) / Fold change (ACY-1035/veh), C12orf56 (ProbeSet 11735607_a_at) / Fold change (Aza/veh), FGFR1OP (ProbeSet 11751329_s_at) / Fold change (ACY-1035/veh), FGFR1OP (ProbeSet 11751329_s_at) / Fold change (Aza/veh), VPS36 (ProbeSet 11739960_a_at) / Fold change (ACY-1035/veh), VPS36 (ProbeSet 11739960_a_at) / RFU SYPL1 (11715823_x_at) / Fold change /veh SYPL1 (11715823_x_at) / RFU IGFBP7 (11715501_s_at) / Fold change /veh IGFBP7 (11715501_s_at) / RFU REEP3 (11722064_at) / Fold change /veh REEP3 (11722064_at) / RFU IGLL1 (11728026_x_at) / Fold change /veh IGLL1 (11728026_x_at): dose or concentration left out as unconfirmed
Settings: ProbeSet 11756954_s_at; LIST B

Nc1ncn([C@@H]2O[C@H](CO)[C@@H](O)[C@H]2O)c(=O)n1 [azacitidine]
RFU, ZEB2: 1324.44 RFU
